This passage reports IC50 results from patent EP4104902B1, “COMPOUNDS AND M[…] SAME” (priority 2020, dated 2021).

In the experiment the test system is recombinant rabies virus 1088 strain expressing Gaussia Luciferase (GLuc) (1088/GLuc). The format is cell-based. Particulars: read-out: Anti-rabies activity.

On to `CC(C)CC[C@@H]1[C@@H]2CN[C@@]3(C(=O)NCCc4ccccc4)[C@@H](C2)CN(CCO)[C@@H]13` (relative stereo) [IB-531], for which the IC50 fell in the range of 10 to 30 µM. As for `NC(=O)CCNC(=O)[C@]12NC[C@@H]3C[C@H]1CN(Cc1ccccc1)[C@H]2[C@@H]3CCc1ccccc1` (relative stereo) [IB-535], the IC50 fell in the range of 10 to 30 µM. Then `CC(C)CN1C[C@@H]2C[C@H]3CN[C@]2(C(=O)NCCc2ccccc2)[C@@H]1[C@@H]3Cc1ccc(O)cc1` (relative stereo) [IB-536], with 10 to 30 µM. The value for `CC(C)CN1C[C@@H]2C[C@H]3CN[C@]2(C(=O)NCCC(N)=O)[C@@H]1[C@@H]3CCc1ccccc1` (relative stereo) [IB-539] was 10 to 30 µM. Then `CC(C)C[C@@H]1[C@@H]2CN[C@@]3(C(=O)NCCc4ccccc4)[C@@H](C2)CN(Cc2ccc(O)cc2)[C@@H]13` (relative stereo) [IB-540], with 10 to 30 µM. In the case of `CC(C)C[C@@H]1[C@@H]2CN[C@@]3(C(=O)NCc4cccc5ccccc45)[C@@H](C2)CN(Cc2ccc(O)cc2)[C@@H]13` (relative stereo) [IB-541], the IC50 is less than 5 µM. The value for `CC(C)CC[C@@H]1[C@@H]2CN[C@@]3(C(=O)NCCc4ccccc4)[C@@H](C2)CN(Cc2ccc(O)cc2)[C@@H]13` (relative stereo) [IB-544] was 10 to 30 µM. On to `O=C(NCc1ccc(F)cc1)[C@]12NC[C@@H]3C[C@H]1CN(CCO)[C@H]2[C@@H]3Cc1ccc(O)cc1` (relative stereo) [IB-549], for which the IC50 was in the range of 10 to 30 µM. As to `CCCCCCNC(=O)[C@]12NC[C@@H]3C[C@H]1CN(CCC(C)C)[C@H]2[C@@H]3CC(C)C` (relative stereo) [IB-551], the IC50 was less than 5 µM. For the molecule `CC(C)CCN1C[C@@H]2C[C@H]3CN[C@]2(C(=O)NCc2ccc(F)cc2)[C@@H]1[C@@H]3CC(C)C` (relative stereo) [IB-553], the IC50 is less than 5 µM.

Turning to `CCCCCCNC(=O)[C@]12NC[C@@H]3C[C@H]1CN(Cc1ccccc1)[C@H]2[C@@H]3Cc1ccccc1` (relative stereo) [IB-562], the IC50 is 10 to 30 µM. Then `O=C(NCc1ccc(F)cc1)[C@]12NC[C@@H]3C[C@H]1CN(Cc1ccccc1)[C@H]2[C@@H]3CCc1ccccc1` (relative stereo) [IB-568], with 10 to 30 µM; and `CC(C)CCNC(=O)[C@]12NC[C@@H]3C[C@H]1CN(Cc1ccc(O)cc1)[C@H]2[C@@H]3Cc1ccccc1` (relative stereo) [IB-574], with 10 to 30 µM. Then `CC(C)CNC(=O)[C@]12NC[C@@H]3C[C@H]1CN(CCC(=O)O)[C@H]2[C@@H]3Cc1cccc2ccccc12` (relative stereo) [IB-575], with 10 to 30 µM. The value for `CC(C)CCN1C[C@@H]2C[C@H]3CN[C@]2(C(=O)NCc2ccc(O)cc2)[C@@H]1[C@@H]3CCc1ccccc1` (relative stereo) [IB-576] was 10 to 30 µM.

Consider `CC(C)CCN1C[C@@H]2C[C@H]3CN[C@]2(C(=O)NCc2ccc(O)cc2)[C@@H]1[C@@H]3Cc1ccccc1` (relative stereo) [IB-577], for which the IC50 lay in the range of 10 to 30 µM. The value for `CC(C)C[C@@H]1[C@@H]2CN[C@@]3(C(=O)NCc4ccc(O)cc4)[C@@H](C2)CN(CC2CCCCC2)[C@@H]13` (relative stereo) [IB-581] was 10 to 30 µM; that for `CC(C)CC[C@@H]1[C@@H]2CN[C@@]3(C(=O)NCc4ccc(O)cc4)[C@@H](C2)CN(Cc2ccc(F)cc2)[C@@H]13` (relative stereo) [IB-582] was 10 to 30 µM; that for `O=C(NCc1ccc(O)cc1)[C@]12NC[C@@H]3C[C@H]1CN(Cc1ccc(F)cc1)[C@H]2[C@@H]3Cc1ccccc1` (relative stereo) [IB-583] was 10 to 30 µM. For the molecule `CC(C)C[C@@H]1[C@@H]2CN[C@@]3(C(=O)NCc4cccc5ccccc45)[C@@H](C2)CN(CCO)[C@@H]13` (relative stereo) [IB-585], the IC50 lay within 10 to 30 µM. Consider `O=C(NCCO)[C@]12NC[C@@H]3C[C@H]1CN(Cc1cccc4ccccc14)[C@H]2[C@@H]3Cc1ccccc1` (relative stereo) [IB-588], for which the IC50 was less than 5 µM.

For `O=C(NCCO)[C@]12NC[C@@H]3C[C@H]1CN(CCc1ccccc1)[C@H]2[C@@H]3Cc1cccc2ccccc12` (relative stereo) [IB-593], the IC50 lay within 10 to 30 µM.

Consider `O=C(NCCO)[C@]12NC[C@@H]3C[C@H]1CN(Cc1ccccc1)[C@H]2[C@@H]3Cc1cccc2ccccc12` (relative stereo) [IB-602], for which the IC50 was in the range of 10 to 30 µM. The value for `O=C(O)CCNC(=O)[C@]12NC[C@@H]3C[C@H]1CN(CCO)[C@H]2[C@@H]3Cc1cccc2ccccc12` (relative stereo) [IB-610] was 10 to 30 µM. The value for `CC(C)CCN1C[C@@H]2C[C@H]3CN[C@]2(C(=O)NCCC(=O)O)[C@@H]1[C@@H]3CC(C)C` (relative stereo) [IB-611] was 10 to 30 µM; that for `CC(C)CC[C@@H]1[C@@H]2CN[C@@]3(C(=O)NCCC(=O)O)[C@@H](C2)CN(CC2CCCCC2)[C@@H]13` (relative stereo) [IB-613] was 10 to 30 µM; that for `O=C(O)CCNC(=O)[C@]12NC[C@@H]3C[C@H]1CN(CC1CCCCC1)[C@H]2[C@@H]3Cc1cccc2ccccc12` (relative stereo) [IB-614] was 10 to 30 µM. Then `O=C(O)CCNC(=O)[C@]12NC[C@@H]3C[C@H]1CN(Cc1ccccc1)[C@H]2[C@@H]3Cc1cccc2ccccc12` (relative stereo) [IB-616], with 10 to 30 µM; and `O=C(NCc1ccccc1)[C@]12NC[C@@H]3C[C@H]1CN(CCO)[C@H]2[C@@H]3CCc1ccccc1` (relative stereo) [IB-618], with less than 5 µM; and `O=C(NCc1ccccc1)[C@]12NC[C@@H]3C[C@H]1CN(CCO)[C@H]2[C@@H]3Cc1ccccc1` (relative stereo) [IB-619], with 10 to 30 µM. As for `CC(C)CNC(=O)[C@]12NC[C@@H]3C[C@H]1CN(CCO)[C@H]2[C@@H]3Cc1cccc2ccccc12` (relative stereo) [IB-621], the IC50 is less than 5 µM.

As to `CC(C)CNC(=O)[C@]12NC[C@@H]3C[C@H]1CN(CCc1ccccc1)[C@H]2[C@@H]3Cc1ccc(O)cc1` (relative stereo) [IB-625], the IC50 lay in the range of 10 to 30 µM. The value for `CC(C)CNC(=O)[C@]12NC[C@@H]3C[C@H]1CN(Cc1ccc(F)cc1)[C@H]2[C@@H]3CC(C)C` (relative stereo) [IB-630] was less than 5 µM; that for `CC(C)CNC(=O)[C@]12NC[C@@H]3C[C@H]1CN(Cc1ccc(F)cc1)[C@H]2[C@@H]3Cc1ccc(O)cc1` (relative stereo) [IB-631] was 10 to 30 µM.

As for `CC(C)CNC(=O)[C@]12NC[C@@H]3C[C@H]1CN(CC(C)C)[C@H]2[C@@H]3CCc1ccccc1` (relative stereo) [IB-633], the IC50 is less than 5 µM. For `CC(C)CCN1C[C@@H]2C[C@H]3CN[C@]2(C(=O)NCCC(N)=O)[C@@H]1[C@@H]3CCc1ccccc1` (relative stereo) [IB-636], the IC50 lay within 10 to 30 µM. The value for `NC(=O)CCNC(=O)[C@]12NC[C@@H]3C[C@H]1CN(CC1CCCCC1)[C@H]2[C@@H]3Cc1ccccc1` (relative stereo) [IB-637] was less than 5 µM; that for `O=C(NCCO)[C@]12NC[C@@H]3C[C@H]1CN(CCc1ccccc1)[C@H]2[C@@H]3Cc1ccccc1` (relative stereo) [IB-640] was less than 5 µM. Then `CC(C)C[C@@H]1[C@@H]2CN[C@@]3(C(=O)NCCO)[C@@H](C2)CN(CCc2ccccc2)[C@@H]13` (relative stereo) [IB-641], with 10 to 30 µM; and `O=C(NCc1ccc(F)cc1)[C@]12NC[C@@H]3C[C@H]1CN(CCc1ccccc1)[C@H]2[C@@H]3Cc1ccc(O)cc1` (relative stereo) [IB-642], with less than 5 µM; and `CC(C)C[C@@H]1[C@@H]2CN[C@@]3(C(=O)NCCO)[C@@H](C2)CN(Cc2cccc4ccccc24)[C@@H]13` (relative stereo) [IB-643], with 10 to 30 µM. In the case of `CC(C)C[C@@H]1[C@@H]2CN[C@@]3(C(=O)NCCO)[C@@H](C2)CN(CC2CCCCC2)[C@@H]13` (relative stereo) [IB-646], the IC50 was 10 to 30 µM. On to `CC(C)CCNC(=O)[C@]12NC[C@@H]3C[C@H]1CN(CC1CCCCC1)[C@H]2[C@@H]3Cc1ccc(O)cc1` (relative stereo) [IB-648], for which the IC50 is 10 to 30 µM. The value for `O=C(NCCO)[C@]12NC[C@@H]3C[C@H]1CN(Cc1ccc(F)cc1)[C@H]2[C@@H]3Cc1ccccc1` (relative stereo) [IB-649] was 10 to 30 µM.

Consider `CC(C)C[C@@H]1[C@@H]2CN[C@@]3(C(=O)NCCO)[C@@H](C2)CN(Cc2ccc(F)cc2)[C@@H]13` (relative stereo) [IB-650], for which the IC50 fell in the range of 10 to 30 µM. The value for `CCCCCCNC(=O)[C@]12NC[C@@H]3C[C@H]1CN(Cc1ccc(F)cc1)[C@H]2[C@@H]3Cc1ccc(O)cc1` (relative stereo) [IB-656] was less than 5 µM. Then `CC(C)CC[C@@H]1[C@@H]2CN[C@@]3(C(=O)NCc4ccc(F)cc4)[C@@H](C2)CN(CCO)[C@@H]13` (relative stereo) [IB-657], with 10 to 30 µM; and `CC(C)CCN1C[C@@H]2C[C@H]3CN[C@]2(C(=O)NCCO)[C@@H]1[C@@H]3CCc1ccccc1` (relative stereo) [IB-658], with 10 to 30 µM; and `CC(C)CCN1C[C@@H]2C[C@H]3CN[C@]2(C(=O)NCCO)[C@@H]1[C@@H]3Cc1cccc2ccccc12` (relative stereo) [IB-659], with less than 5 µM.

For the molecule `O=C(NCCO)[C@]12NC[C@@H]3C[C@H]1CN(CC1CCCCC1)[C@H]2[C@@H]3CCc1ccccc1` (relative stereo) [IB-663], the IC50 was less than 5 µM. Then `CC(C)CC[C@@H]1[C@@H]2CN[C@@]3(C(=O)NCCO)[C@@H](C2)CN(Cc2ccc(F)cc2)[C@@H]13` (relative stereo) [IB-668], with less than 5 µM; and `O=C(NCCO)[C@]12NC[C@@H]3C[C@H]1CN(Cc1ccc(F)cc1)[C@H]2[C@@H]3CCc1ccccc1` (relative stereo) [IB-669], with 10 to 30 µM; and `O=C(NCCO)[C@]12NC[C@@H]3C[C@H]1CN(Cc1ccccc1)[C@H]2[C@@H]3Cc1ccccc1` (relative stereo) [IB-676], with 10 to 30 µM.

As for `CC(C)CCNC(=O)[C@]12NC[C@@H]3C[C@H]1CN(Cc1ccccc1)[C@H]2[C@@H]3Cc1ccc(O)cc1` (relative stereo) [IB-678], the IC50 is less than 5 µM.
